Patent US20220315908A1, “NOVEL GARDNERELLA ENDOLYSINS AND USES THEREOF” (priority 2019, published 2022)

How the values were obtained:
Experiment in all cases: MIC and MBC microbroth dilution
[1] = tested on: G. vaginalis (Gv_9); type: cell-based, Gardnerella vaginalis; details: for MIC / MBC: Gardnerella vaginalis; for MIC: 48 h
Procedure: (§1) One of the main deficiencies in the treatment of BV is the high rate of recurrence in many women, which leads to repeated administration of antibiotics and concomitant destabilization of the microbiome and other side effects. The minimal inhibitory concentration (MIC) and minimal bactericidal concentration (MBC) on Gardnerella cells of the strains also used for the endolysin activity assays were then measured using the method described in Reference Example 6 and 7. […] Essentially, Gardnerella suspensions at 2.5×10^7 CFU/ml were incubated with the concentration of antibiotics as indicated and incubated for 48 h at 37° C. under anaerobic conditions. […] OD(610) was measured at the beginning and the end of the experiment. At the end of the experiment, 2 ul of each reaction mix was spotted on agar to determine the MBC.
(§2) The conditions under which MIC and MBC were measured are more rigorous than the standard.
(§3) Example 7—Activity assays of a representative (H2B10) of domain swapped endolysins on the growth in suspension of different Gardnerella strains. […] The conditions under which MBC was measured are more rigorous than the standard. […] In general, it is known, that antibiotics only insufficiently eradicate the Gardnerella biofilm, a hallmark of BV, which is one suspected reason for the reported very high recurrence rate of BV. Despite leaving residual viable biofilm, antibiotics wipe parts of the beneficial organisms of the vaginal microbiome which then opens an ecological niche for other pathogens, e.g. fungi.
(§4) Bacteria were plated from cryo stock on BD Choc Agar plates (Gardnerella) and incubated at 37° C. for 48 h under anaerobic conditions. Colonies were scraped from the plate, resuspended in Hardy Broth or NYC-III-HS-pH 5.0, and the suspension adjusted to OD (610 or 620 nm as indicated) 0.05. It has to be noted that two Tecan Microplate readers, having respectively a 610 nm or 620 nm filter, have been used interchangeably in the experiments. Although it doesn't make any difference for the experiments, the exact wavelength used is specified in each example. Antibiotics were prepared as 20× stocks for each of the required final concentrations. 95 μl of cell suspension was mixed with 5 μl antibiotics dilution in a 384-well plate. OD (610-620 as indicated) at the start of the reaction was measured, then the plate was incubated at 37° C. for 48 h under anaerobic conditions. After that, the OD (610-620 as indicated) was measured again for MIC determination, where MIC was defined as the lowest concentration of antibiotic where the OD (610-620 as indicated) was not above the level measured at the beginning of the experiment. After measuring OD, 2 μl of each well were spotted on a NYC-III+HS Agar plate. The plates were then incubated for further 48 h at 37° C. under anaerobic conditions. After incubation, cell growth on each spot was evaluated, and the MBC defined as the lowest concentration of antibiotics where no bacteria grew on the plate. The experiments were conducted in triplicate for each condition. In the second round of MIC and MBC experiments with antibiotics the Gardnerella cell suspension was adjusted to the McFarland standard 0.5 (approximately OD (610) 0.07) and then diluted 1:75 according to the CLSI (Clinical and Laboratory Standards Institute) standards. Antibiotics were prepared according to the CLSI standards and 50 μl of cell suspension was mixed in a 96-well plate with 50 μl antibiotics. Otherwise the MIC and MBC was determined as described above.

[2] = tested on: G. leopoldii (Gv_11); type: cell-based, Gardnerella leopoldii; details: for MIC / MBC: Gardnerella leopoldii; for MIC: 48 h
Procedure: as §1, §2, §3, §4

[3] = tested on: G. swidsinskii (Gv_23); type: cell-based, Gardnerella swidsinskii; details: for MIC / MBC: Gardnerella swidsinskii; for MIC: 48 h
Procedure: as §1, §2, §3, §4

[4] = first round: […]10^7 CFU/ml, Hardy broth, 384-well, 48 h 37° C. anaerobic
[5] = second round: 1×10^5-1×10^6 CFU/ml (CLSI), NYC-III broth, 96-well, 48 h anaerobic
[6] = second round: 1×10^5-1×10^6 CFU/ml (CLSI), NYC-III broth, 96-well
[7] = first round: 2.5×10^7 CFU/ml, minimal concentration fully eradicating the suspension

Cc1ncc([N+](=O)[O-])n1CCO [Metronidazole]
128 µg/mL: MIC [1, 4] | MIC [2, 5]
8 µg/mL: MIC [1, 5]
> 128 µg/mL: MBC ([1]; first round: […]10^7 CFU/ml, minimal concentration fully eradicating the suspension) | MIC [2, 4] | MBC [2, 6] | MBC [2, 7] | MIC [3, 4] | MBC [3, 6] | MBC [3, 7]
R (>=32 μg/mi for Metronidazole): resistance class of MIC, Metronidazole ([1]; first round) | resistance class given with MBC, Metronidazole ([1]; second round) | resistance class of MIC, Metronidazole ([2]; first round) | resistance class given with MBC, Metronidazole ([2]; second round) | resistance class printed with MIC, Metronidazole ([2]; second round) | resistance class of MIC, Metronidazole ([3]; first round) | resistance class given with MBC, Metronidazole ([3]; second round) | resistance class printed with MIC, Metronidazole ([3]; second round)
32 µg/mL: MIC [3, 5]
16 µg/mL: MBC [1, 6]
